Assay: xn = mol fraction of the nth substance listed

CCCCCCCCCCC + CCCCO
viscosity [mPa·s], 100 kPa
Settings	x1 = 0.1003	x1 = 0.1998	x1 = 0.3006	x1 = 0.4	x1 = 0.5006	x1 = 0.6013	x1 = 0.6989	x1 = 0.8018	x1 = 0.8991
293.15 K	2.391	–	1.749	1.549	1.398	–	1.223	–	–
298.15 K	2.107	–	–	1.391	1.264	1.177	1.119	–	–
303.15 K	–	–	1.399	1.257	1.15	1.076	1.028	0.997	0.974
308.15 K	–	–	1.261	1.141	1.05	0.99	0.949	0.923	–
313.15 K	–	1.288	1.141	1.04	0.964	0.913	0.879	0.857	0.838
318.15 K	–	1.163	1.037	0.952	0.888	0.845	0.817	0.798	0.781
323.15 K	1.199	1.054	0.947	0.874	0.82	0.785	0.761	0.746	0.73

OCCCl + CCCCO
viscosity [mPa·s], 101.33 kPa
Settings	x1 = 0.097	x1 = 0.1922	x1 = 0.2941	x1 = 0.3928	x1 = 0.4937	x1 = 0.5925	x1 = 0.6943	x1 = 0.7957	x1 = 0.8961
298.15 K	2.59	2.593	2.597	2.616	2.641	2.672	2.702	2.731	2.781
303.15 K	2.29	2.25	2.271	2.288	2.316	2.363	2.38	2.4	2.428
308.15 K	2.028	2.029	2.026	2.027	2.047	2.075	2.1	2.12	2.14

NC=O + COCCO
101 kPa
Settings	viscosity [mPa·s]
303 K, x1 = 0.1585	1.679
303 K, x1 = 0.4194	2.286
303 K, x1 = 0.5295	2.443
303 K, x1 = 0.6283	2.625
303 K, x1 = 0.717	2.859
303 K, x1 = 0.8711	2.837
303 K, x1 = 0.9381	2.945
303.15 K, x1 = 0.1785	1.795
313 K, x1 = 0.2971	1.632
313 K, x1 = 0.4194	1.841
313 K, x1 = 0.5295	1.958
313 K, x1 = 0.6283	2.067
313 K, x1 = 0.717	2.223
313 K, x1 = 0.7978	2.339
313 K, x1 = 0.8711	2.226
318.15 K, x1 = 0.5726	1.885

NC=O + C1COCCO1
101 kPa
Settings	viscosity [mPa·s]
298.15 K, x1 = 0.2556	1.492
298.15 K, x1 = 0.433	1.849
298.15 K, x1 = 0.5602	2.219
298.15 K, x1 = 0.6657	2.564
298.15 K, x1 = 0.7461	2.863
298.15 K, x1 = 0.8157	3.094
298.15 K, x1 = 0.8733	3.26
298.15 K, x1 = 0.9221	3.361
298.15 K, x1 = 0.9643	3.363
313.15 K, x1 = 0.2695	1.138
313.15 K, x1 = 0.4572	1.383
313.15 K, x1 = 0.58	1.621
313.15 K, x1 = 0.6792	1.846
313.15 K, x1 = 0.7583	2.039
313.15 K, x1 = 0.8242	2.193
313.15 K, x1 = 0.8775	2.294
313.15 K, x1 = 0.9226	2.338
313.15 K, x1 = 0.9638	2.362

CC(=O)[O-].[Na+] + CC(=O)[O-].CC[n+]1ccn(C)c1
Settings	viscosity [mPa·s]
298.15 K, 101 kPa, x1 = 0.0501	160.5

CCCC(O)CC (stereo not drawn) + CCO
298.15 K, 101.33 kPa
Settings	viscosity [mPa·s]
x2 = 0.1028	4.236
x2 = 0.2116	3.975
x2 = 0.3124	3.658
x2 = 0.4135	3.218
x2 = 0.5018	2.88
x2 = 0.6027	2.459
x2 = 0.6987	2.054
x2 = 0.7994	1.673
x2 = 0.9044	1.363

OCCCl + Nc1cccc(Cl)c1
100 kPa
Settings	viscosity [mPa·s]
303.15 K, x2 = 0.7938	3.925
308.15 K, x2 = 0.3622	2.855
313.15 K, x2 = 0.0844	1.995
313.15 K, x2 = 0.5814	2.795

NC=O + CC(O)CO
viscosity [mPa·s], 101 kPa
Settings	293.15 K	298.15 K	303.15 K	308.15 K	313.15 K	318.15 K
x1 = 0.0567	41.37	33.51	27.96	23	18.07	14.26
x1 = 0.1191	36.96	29.71	24.4	19.81	15.28	11.93
x1 = 0.1736	–	29.68	–	–	–	–
x1 = 0.1881	33.2	26.49	21.59	17.16	12.95	9.801
x1 = 0.2649	29.41	23.3	18.92	14.86	10.98	8.107
x1 = 0.3159	–	22.75	–	–	–	–
x1 = 0.3409	25.85	20.41	16.5	12.9	9.425	6.875
x1 = 0.4166	–	18.75	–	–	–	–
x1 = 0.4478	21.21	16.73	13.52	10.58	7.704	5.602
x1 = 0.5518	–	14.59	–	–	–	–
x1 = 0.5578	16.8	13.31	10.81	8.506	6.3	4.653
x1 = 0.6017	–	13.69	–	–	–	–
x1 = 0.654	–	12.31	–	–	–	–
x1 = 0.6838	12.2	9.902	8.159	6.542	5.072	3.959
x1 = 0.7347	–	10.26	–	–	–	–
x1 = 0.8117	–	8.254	–	–	–	–
x1 = 0.8295	7.586	6.35	5.433	4.647	3.789	3.144
x1 = 0.8808	–	6.511	–	–	–	–
x1 = 0.8818	6.101	5.206	4.59	4.003	3.386	2.902
x1 = 0.9392	4.756	4.189	3.805	3.401	2.96	2.601
x1 = 0.9434	–	4.916	–	–	–	–

CN1CCC[C@H]1c1cccnc1 + O
viscosity [mPa·s]
Settings	298.15 K	303.15 K	308.15 K	318.05 K	323.15 K
100 kPa, x1 = 0.006	–	1.33	–	1.15	–
100 kPa, x1 = 0.1	–	7.1	–	4.1	–
100 kPa, x1 = 0.3	–	14.2	–	6.2	–
100 kPa, x1 = 0.4	–	17.3	–	5.8	–
100 kPa, x1 = 0.5	–	11.1	–	5	–
100 kPa, x1 = 0.6	–	5.8	–	3.1	–
100 kPa, x1 = 0.7	–	4.5	–	2.8	–
100 kPa, x1 = 0.8	–	4.8	–	3.5	–
100 kPa, x1 = 0.9	–	2	–	1.3	–
101 kPa, x1 = 0.1202	11.12	–	6.629	–	3.436
101 kPa, x1 = 0.1977	19.96	–	10.4	–	4.771
101 kPa, x1 = 0.2424	23.83	–	12.08	–	5.382
101 kPa, x1 = 0.2592	25.19	–	12.24	–	5.493
101 kPa, x1 = 0.2808	24.43	–	12.19	–	5.403
101 kPa, x1 = 0.3047	23.6	–	12.1	–	5.304
101 kPa, x1 = 0.3692	21.03	–	11.15	–	5.146
101 kPa, x1 = 0.4852	15.84	–	8.817	–	4.426
101 kPa, x1 = 0.6052	11.43	–	6.572	–	3.624
101 kPa, x1 = 0.7285	7.954	–	4.832	–	2.834
101 kPa, x1 = 0.8635	5.014	–	3.811	–	2.486

CN1CCC[C@H]1c1cccnc1 + CC(=O)O
viscosity [mPa·s], 101 kPa
Settings	298.15 K	323.15 K
x1 = 0.1169	23.04	7.777
x1 = 0.1985	74.98	18.12
x1 = 0.2129	93.46	20.8
x1 = 0.2369	109.9	21.63
x1 = 0.2489	111.9	22.09
x1 = 0.2602	110.9	21.72
x1 = 0.2952	94.15	19.47
x1 = 0.3062	86.56	18.65
x1 = 0.3711	56.31	13.21
x1 = 0.47	24.1	7.709
x1 = 0.5888	15.2	5.208
x1 = 0.7306	8.751	3.61
x1 = 0.8435	7.072	3.085

CCCCCCCCCCC + CCCCC
viscosity [mPa·s]
Settings	293.15 K	298.15 K	303.15 K	308.15 K	313.15 K	318.15 K	323.15 K
100 kPa, x2 = 0.1034	1.033	0.957	0.887	0.825	0.77	0.721	0.677
100 kPa, x2 = 0.2018	0.906	0.842	0.784	0.732	0.686	0.645	0.607
100 kPa, x2 = 0.3079	0.774	0.723	0.676	0.634	0.597	0.563	0.531
100 kPa, x2 = 0.3996	0.689	0.645	0.606	0.571	0.538	0.509	0.483
100 kPa, x2 = 0.5027	0.594	0.556	0.523	0.494	0.468	0.444	0.422
100 kPa, x2 = 0.6106	0.488	0.461	0.437	0.415	0.395	0.376	0.366
100 kPa, x2 = 0.702	0.427	0.405	0.386	0.368	0.358	–	–
100 kPa, x2 = 0.8003	0.359	0.341	0.324	0.308	–	–	–
100 kPa, x2 = 0.8988	0.287	0.273	0.259	–	–	–	–
101.33 kPa, x2 = 0.0962	–	0.9653	–	–	–	–	–
101.33 kPa, x2 = 0.1826	–	0.8798	–	–	–	–	–
101.33 kPa, x2 = 0.274	–	0.7841	–	–	–	–	–
101.33 kPa, x2 = 0.368	–	0.6944	–	–	–	–	–
101.33 kPa, x2 = 0.4834	–	0.5825	–	–	–	–	–
101.33 kPa, x2 = 0.5738	–	0.5061	–	–	–	–	–
101.33 kPa, x2 = 0.6599	–	0.4333	–	–	–	–	–
101.33 kPa, x2 = 0.7461	–	0.3731	–	–	–	–	–
101.33 kPa, x2 = 0.8967	–	0.2805	–	–	–	–	–

CN1CCC[C@H]1c1cccnc1 + CC(=O)c1ccccc1
viscosity [mPa·s], 101 kPa
Settings	x1 = 0.1332	x1 = 0.2426	x1 = 0.3782	x1 = 0.4934	x1 = 0.613	x1 = 0.7431	x1 = 0.8402
298.15 K	1.872	2.198	2.537	2.947	3.238	3.627	3.736
323.15 K	1.162	1.288	1.453	1.551	1.743	1.912	1.962
